Source: US10420744B2, “Composition of chlorogenic acid and methods of making and using the same in treating serum lipid levels” (Vidya Herbs, Inc., priority 2014, dated 2019)
Marks after values point to notes of the source that are not given here.

Test system: high fat diet fed rats
Test: Anti-obesity activity, high fat diet in rats
Type: in vivo, Wistar rats
Details: Group III: high fat diet + orlistat 30 mg/kg
Method: Objective: The objective was to investigate the effect of the CGA-7 complex against high fat diet fed rats. Model: High fat diet in rats […] Male Wistar rats were divided into six groups with six animals in each group. [table] Body weight was measured once every 2 days. Food intake was measured daily for 42 days. On day 43, all the animals were kept overnight fasting before sacrifice. Blood was collected by puncturing the retro orbital plexus. Serum was separated by centrifugation at 3000 rpm for 10 minutes. Serum was estimated for glucose, cholesterol, triglycerides and HDL. LDL and atherogenic index were also calculated. Liver, mesenteric, brown adipose tissue (BAT), left and right perirenal fat pads, left and right epididymal pads were isolated and weighed. Liver was isolated and estimated for liver triglycerides and cholesterol levels.

CCCCCCCCCCC[C@@H](C[C@@H]1OC(=O)[C@H]1CCCCCC)OC(=O)[C@H](CC(C)C)NC=O [orlistat, Orlistat]
liver cholesterol: 49.66 ± 3.28***^b | liver triglycerides: 64.64 ± 3.44***^b | Average food intake (42 days): 8.54 ± 0.40^nsb g/rat | BAT (42 days): 0.19 ± 0.01**^b | Difference in body weight (42 days): 88.01 ± 3.68***^b | Epididymal fat pad Left (42 days): 0.50 ± 0.01**^b | Epididymal fat pad Right (42 days): 0.48 ± 0.01*^b | Liver organ weight (42 days): 3.47 ± 0.11***^b | Mesenteric fat (42 days): 0.98 ± 0.03*^b | Peri renal fat pad tissue Left (42 days): 0.61 ± 0.05*^b | Peri renal fat pad tissue Right (42 days): 0.65 ± 0.04*^b | Initial weight (baseline, in g (unit assumed)): 130.3 ± 0.56 | Atherogenic Index (calculated): 2.20 ± 0.20***^b | serum Glucose (day 43): 109.7 ± 3.93**^b mg/dL | serum HDL-c (day 43): 20.47 ± 1.08*^b mg/dL | serum Total cholesterol (day 43): 63.38 ± 0.95***^b mg/dL | serum Triglyceride (day 43): 77.63 ± 4.27***^b mg/dL | serum LDL-c (day 43, calculated): 27.39 ± 1.07^nsb mg/dL | Final weight (male Wistar rats, 42 days, in g (unit assumed)): 218.4 ± 2.65
